From ChEMBL document CHEMBL3817845, “Development of CNS multi-receptor ligands: Modification of known D2 pharmacophores” (Bioorg Med Chem, 2016)

Key:
[1] = target: D(2) dopamine receptor (Homo sapiens, UniProt P14416); assay: Displacement of [3H]N-methylspiperone from human recombinant dopamine D2 receptor incubated for […] by microbeta scintillation counting method
[2] = target: 5-hydroxytryptamine receptor 7 (Homo sapiens, UniProt P34969); assay: Displacement of [3H]LSD from human recombinant 5HT7 receptor incubated for […] by microbeta scintillation counting method
Chain of 5-hydroxytryptamine receptor 7 (P34969 whole entry): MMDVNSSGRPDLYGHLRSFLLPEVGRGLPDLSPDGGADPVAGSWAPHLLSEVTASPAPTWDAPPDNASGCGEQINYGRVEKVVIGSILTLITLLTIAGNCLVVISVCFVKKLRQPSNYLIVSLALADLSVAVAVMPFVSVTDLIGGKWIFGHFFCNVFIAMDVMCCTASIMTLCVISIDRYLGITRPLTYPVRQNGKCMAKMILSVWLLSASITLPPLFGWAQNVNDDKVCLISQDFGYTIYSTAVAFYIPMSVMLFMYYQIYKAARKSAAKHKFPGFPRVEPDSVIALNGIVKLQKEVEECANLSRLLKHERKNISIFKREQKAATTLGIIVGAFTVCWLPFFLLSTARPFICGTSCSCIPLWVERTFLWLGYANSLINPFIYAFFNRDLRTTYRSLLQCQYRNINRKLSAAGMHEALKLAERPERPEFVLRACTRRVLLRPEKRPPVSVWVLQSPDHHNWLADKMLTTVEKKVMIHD

[3] = target: T1, D(4) dopamine receptor (Homo sapiens, UniProt P21917); assay: Displacement of [3H]N-methylspiperone from human recombinant dopamine D4 receptor incubated for […] by microbeta scintillation counting method
T1 sequence (P21917 whole entry): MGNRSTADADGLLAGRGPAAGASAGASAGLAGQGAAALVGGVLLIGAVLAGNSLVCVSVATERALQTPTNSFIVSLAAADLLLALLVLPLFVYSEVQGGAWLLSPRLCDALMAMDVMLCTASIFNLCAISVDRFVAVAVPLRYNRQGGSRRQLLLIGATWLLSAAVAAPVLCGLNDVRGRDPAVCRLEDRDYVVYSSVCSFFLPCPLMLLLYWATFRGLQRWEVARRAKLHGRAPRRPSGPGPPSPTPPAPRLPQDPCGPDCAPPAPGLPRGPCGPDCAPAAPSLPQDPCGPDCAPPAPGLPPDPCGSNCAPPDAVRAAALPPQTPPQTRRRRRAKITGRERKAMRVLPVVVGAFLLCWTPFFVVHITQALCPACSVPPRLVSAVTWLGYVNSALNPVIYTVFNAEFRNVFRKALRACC

[4] = target: Sodium-dependent serotonin transporter (Homo sapiens, UniProt P31645); assay: Displacement of [3H]Citalopram from human recombinant SERT incubated for […] by microbeta scintillation counting method
[5] = target: 5-hydroxytryptamine receptor 2B (Homo sapiens, UniProt P41595); assay: Displacement of [3H]LSD from human recombinant 5HT2B receptor incubated for […] by microbeta scintillation counting method
Chain of 5-hydroxytryptamine receptor 2B (P41595 whole entry): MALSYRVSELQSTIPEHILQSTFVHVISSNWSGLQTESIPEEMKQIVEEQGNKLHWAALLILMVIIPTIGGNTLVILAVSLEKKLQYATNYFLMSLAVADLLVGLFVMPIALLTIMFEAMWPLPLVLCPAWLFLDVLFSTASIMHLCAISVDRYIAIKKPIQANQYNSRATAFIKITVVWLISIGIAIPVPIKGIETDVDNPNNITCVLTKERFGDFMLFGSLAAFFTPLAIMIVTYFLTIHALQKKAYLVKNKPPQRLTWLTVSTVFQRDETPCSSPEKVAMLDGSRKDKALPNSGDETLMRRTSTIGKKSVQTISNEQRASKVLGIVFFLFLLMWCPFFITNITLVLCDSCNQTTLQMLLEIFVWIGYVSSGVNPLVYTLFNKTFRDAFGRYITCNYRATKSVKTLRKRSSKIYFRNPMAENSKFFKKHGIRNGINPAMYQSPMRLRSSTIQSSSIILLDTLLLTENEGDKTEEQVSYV

[6] = target: T2, D(3) dopamine receptor (Homo sapiens, UniProt P35462); assay: Displacement of [3H]N-methylspiperone from human recombinant dopamine D3 receptor incubated for […] by microbeta scintillation counting method
T2 sequence (P35462 whole entry): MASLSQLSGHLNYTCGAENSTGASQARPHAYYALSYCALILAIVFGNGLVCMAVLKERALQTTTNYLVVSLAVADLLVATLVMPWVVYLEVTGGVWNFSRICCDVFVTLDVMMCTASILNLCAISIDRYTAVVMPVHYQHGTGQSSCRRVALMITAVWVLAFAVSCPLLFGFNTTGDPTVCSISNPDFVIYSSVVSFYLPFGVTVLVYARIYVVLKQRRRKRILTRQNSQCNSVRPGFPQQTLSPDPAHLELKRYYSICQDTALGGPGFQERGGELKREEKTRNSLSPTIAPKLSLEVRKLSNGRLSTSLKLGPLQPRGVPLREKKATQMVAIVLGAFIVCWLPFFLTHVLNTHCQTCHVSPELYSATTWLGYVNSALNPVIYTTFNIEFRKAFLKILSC

[7] = target: T3, 5-hydroxytryptamine receptor 2A (Homo sapiens, UniProt P28223); assay: Displacement of [3H]Ketanserin from human recombinant 5HT2A receptor incubated for […] by microbeta scintillation counting method
T3 sequence (P28223 whole entry): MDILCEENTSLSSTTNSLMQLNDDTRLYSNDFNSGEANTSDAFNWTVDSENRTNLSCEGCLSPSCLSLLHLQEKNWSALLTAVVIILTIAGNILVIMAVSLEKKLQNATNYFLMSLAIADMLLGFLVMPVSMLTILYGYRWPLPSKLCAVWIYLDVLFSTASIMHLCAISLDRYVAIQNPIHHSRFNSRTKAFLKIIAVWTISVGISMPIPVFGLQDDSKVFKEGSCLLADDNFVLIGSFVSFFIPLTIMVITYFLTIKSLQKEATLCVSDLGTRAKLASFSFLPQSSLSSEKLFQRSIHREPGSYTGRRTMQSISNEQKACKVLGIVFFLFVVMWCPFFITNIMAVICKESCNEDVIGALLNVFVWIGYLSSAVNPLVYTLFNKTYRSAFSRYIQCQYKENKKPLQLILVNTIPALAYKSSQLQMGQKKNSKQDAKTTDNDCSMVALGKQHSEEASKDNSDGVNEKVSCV

[8] = target: T4, 5-hydroxytryptamine receptor 1A (Homo sapiens, UniProt P08908); assay: (§1) Displacement of [3H]8-OH-DPAT from human recombinant 5HT1A receptor incubated for […] by microbeta scintillation counting method
T4 sequence (P08908 whole entry): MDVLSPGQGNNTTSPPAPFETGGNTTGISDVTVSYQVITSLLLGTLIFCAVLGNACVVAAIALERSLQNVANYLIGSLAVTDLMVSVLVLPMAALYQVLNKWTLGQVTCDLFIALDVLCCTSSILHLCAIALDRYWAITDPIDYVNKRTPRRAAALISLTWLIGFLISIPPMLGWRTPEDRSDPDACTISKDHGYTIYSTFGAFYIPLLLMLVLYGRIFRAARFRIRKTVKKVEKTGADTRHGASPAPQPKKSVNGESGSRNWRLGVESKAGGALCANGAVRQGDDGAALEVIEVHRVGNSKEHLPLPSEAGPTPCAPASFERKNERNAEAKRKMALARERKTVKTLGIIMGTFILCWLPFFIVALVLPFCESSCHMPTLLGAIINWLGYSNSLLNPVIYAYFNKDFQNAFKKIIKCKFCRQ

[9] = target: T5, 5-hydroxytryptamine receptor 2C (5HT2C) (Homo sapiens, UniProt P28335); assay: (§2) Displacement of [3H]Mesulergine from human recombinant 5HT2C receptor incubated for […] by microbeta scintillation counting method; settings: human, recombinant 5HT2C receptor, probe [3H]Mesulergine
T5 sequence (P28335 whole entry): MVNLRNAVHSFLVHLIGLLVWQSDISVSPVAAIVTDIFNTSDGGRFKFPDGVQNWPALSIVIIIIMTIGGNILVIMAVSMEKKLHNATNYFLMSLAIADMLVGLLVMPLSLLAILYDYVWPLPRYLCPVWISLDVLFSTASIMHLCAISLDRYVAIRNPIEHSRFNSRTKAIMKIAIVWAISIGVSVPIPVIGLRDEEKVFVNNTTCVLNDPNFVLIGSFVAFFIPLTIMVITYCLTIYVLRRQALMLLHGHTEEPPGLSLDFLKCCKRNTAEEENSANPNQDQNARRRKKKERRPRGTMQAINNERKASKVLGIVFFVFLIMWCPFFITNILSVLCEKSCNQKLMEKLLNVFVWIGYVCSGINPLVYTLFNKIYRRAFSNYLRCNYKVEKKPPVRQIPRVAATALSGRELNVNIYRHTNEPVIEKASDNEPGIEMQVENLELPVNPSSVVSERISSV

[10] = target: Histamine H1 receptor (Homo sapiens, UniProt P35367); assay: Displacement of [3H]Pyrilamine from human recombinant histamine H1 receptor incubated for […] by microbeta scintillation counting method
Chain of Histamine H1 receptor (P35367 whole entry): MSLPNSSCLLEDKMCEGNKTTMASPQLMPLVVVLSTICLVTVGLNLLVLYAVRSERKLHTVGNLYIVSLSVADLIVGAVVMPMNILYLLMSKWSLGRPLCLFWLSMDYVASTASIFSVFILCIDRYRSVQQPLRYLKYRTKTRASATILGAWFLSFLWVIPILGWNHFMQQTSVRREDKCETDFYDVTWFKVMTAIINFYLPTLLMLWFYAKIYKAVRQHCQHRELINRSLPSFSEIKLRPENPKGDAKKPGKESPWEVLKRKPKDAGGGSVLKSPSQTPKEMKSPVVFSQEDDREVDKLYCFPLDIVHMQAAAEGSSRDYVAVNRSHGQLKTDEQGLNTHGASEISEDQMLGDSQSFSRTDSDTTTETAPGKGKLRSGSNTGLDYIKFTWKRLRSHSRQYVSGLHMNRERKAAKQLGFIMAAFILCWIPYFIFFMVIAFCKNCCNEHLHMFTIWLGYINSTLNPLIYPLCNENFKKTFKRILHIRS

[11] = target: T6, 5-hydroxytryptamine receptor 1A (Homo sapiens) (UniProt P08908); assay: as §1
T6 sequence (whole entry): T4 sequence (P08908 whole entry)

[12] = Lipophilicity, log P of the compound; type: physicochemical; settings: octanol/water
[13] = target: T7, 5-hydroxytryptamine receptor 2C (Homo sapiens, UniProt P28335); assay: as §2
T7 sequence (P28335 whole entry): T5 sequence (P28335 whole entry)

[14] = target: T3, 5-hydroxytryptamine receptor 2A; assay: Binding affinity to 5HT2A receptor (unknown origin)
[15] = target: T2, D(3) dopamine receptor; assay: Displacement of [125I]-IABN from human recombinant dopamine D3 receptor expressed in HEK293 cell membrane incubated for 60 mins filtration binding assay

Chain of D(2) dopamine receptor (P14416 whole entry): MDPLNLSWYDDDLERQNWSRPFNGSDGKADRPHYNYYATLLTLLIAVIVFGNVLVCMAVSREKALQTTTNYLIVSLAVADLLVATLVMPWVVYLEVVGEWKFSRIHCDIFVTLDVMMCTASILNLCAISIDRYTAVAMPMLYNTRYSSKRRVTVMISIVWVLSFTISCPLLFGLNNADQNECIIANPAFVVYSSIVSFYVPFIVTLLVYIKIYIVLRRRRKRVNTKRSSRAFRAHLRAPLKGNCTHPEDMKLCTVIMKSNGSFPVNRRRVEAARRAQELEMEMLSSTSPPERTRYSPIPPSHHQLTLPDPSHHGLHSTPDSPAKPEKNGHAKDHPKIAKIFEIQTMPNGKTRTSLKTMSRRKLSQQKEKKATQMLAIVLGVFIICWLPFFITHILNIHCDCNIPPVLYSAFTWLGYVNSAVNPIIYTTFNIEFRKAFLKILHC

SMILES	Ki [1]	Ki [2]	Ki [3]	Ki [5]	Ki [6]	Ki [7]	Ki [8]	inhibition at […] [9]	Ki ([10]; read-out: Ki)	further results
O=C1NCN(c2ccccc2)C12CCN(CCCCc1nc3ccccc3s1)CC2	24 nM	626 nM	132 nM	122 nM	32 nM	> 10000 nM	195 nM	< 50%	504 nM	inhibition [4]: < 50%
O=C(CCCCN1CCC(n2c(=O)[nH]c3cc(Cl)ccc32)CC1)c1nc2ccccc2s1	–	–	–	–	64 nM	–	–	–	–	–
Cl.O=C(CCCCN1C2CCC1CC(O)(c1ccc(Cl)cc1)C2)c1nc2ccccc2s1 (stereo not drawn)	–	80 nM	–	758 nM	–	–	–	< 50%	1030 nM	pKi [1]: 6.74; Ki ([4]; read-out: Ki): 54 nM; Ki ([4]; read-out: pKi (converted)): 4.68 nM; inhibition [7]: < 50%; inhibition [11]: < 50%
OC1(c2ccc(Cl)cc2)CC2CCC(C1)N2CCCCc1nc2ccccc2s1 (stereo not drawn)	–	1010 nM	–	342 nM	–	–	–	–	–	Ki ([4]; read-out: Ki): 180 nM
O=C(CCCCN1CCC2(CC1)C(=O)NCN2c1ccccc1)c1nc2ccccc2s1	–	–	162 nM	–	18 nM	–	–	< 50%	–	–
O=C1NCN(c2ccccc2)C12CCN(CCCCc1c[nH]c3ccccc13)CC2	–	> 10000 nM	1.6 nM	202 nM	31 nM	–	376 nM	< 50%	273 nM	logP [12]: 3.52; Ki ([4]; read-out: Ki): 10 nM; Ki ([4]; read-out: pKi (converted)): 4.68 nM
OC1(c2ccc(Cl)cc2)CCN(CCCCc2nc3ccccc3s2)CC1	–	–	–	–	291 nM	–	–	–	–	–
OC1(c2ccc(Cl)cc2)CCN(CCCCc2nc3ccccc3o2)CC1	438 nM	–	229 nM	–	942 nM	5970 nM	3150 nM	–	–	inhibition [2]: < 50%
O=C1NCN(c2ccccc2)C12CCN(CCCCc1nc3cc(Cl)ccc3s1)CC2	18 nM	–	–	36 nM	499 nM	–	102 nM	–	263 nM	Ki ([4]; read-out: Ki): 3060 nM; Ki [13]: 614 nM; Ki ([10]; read-out: pKi (converted)): 275 nM
Fc1ccc(C(c2ccc(F)cc2)N2CCN(CCCCc3nc4ccccc4s3)CC2)cc1	195 nM	778 nM	68 nM	–	33 nM	519 nM	–	–	–	inhibition [11]: < 50%
OC1(c2ccc(Cl)cc2)CCN(CCCc2nc3ccccc3s2)CC1	763 nM	189 nM	163 nM	–	28 nM	168 nM	34 nM	–	–	–
O=C(CCCN1CCC(O)(c2ccc(Cl)cc2)CC1)c1ccc(F)cc1 [HALOPERIDOL]	–	–	–	–	–	–	–	–	–	logP [12]: 3.49
O=C(CCCN1CCC(n2c(O)nc3ccccc32)CC1)c1ccc(F)cc1 [BENPERIDOL]	–	–	–	–	–	–	–	–	–	Ki [14]: 1.2 nM; Ki [15]: 0.29 nM
O=C1NCN(c2ccccc2)C12CCN(CCCCc1nc3ccccc3o1)CC2	10 nM	1510 nM	118 nM	905 nM	21 nM	–	382 nM	< 50%	535 nM	inhibition [4]: < 50%; inhibition [7]: < 50%
O=C(CCCCN1CCN(C(c2ccc(F)cc2)c2ccc(F)cc2)CC1)c1nc2ccccc2s1	159 nM	562 nM	1220 nM	–	233 nM	1080 nM	–	–	–	inhibition [11]: < 50%
O=C(CCCN1CCC2(CC1)C(=O)NCN2c1ccccc1)c1ccc(F)cc1 [SPIPERONE]	–	–	–	–	–	–	–	–	–	logP [12]: 2.78
